For this experiment, the target named is hCRTH2 receptor (Homo sapiens (Human), UniProt Q9Y5Y4). Nature of the experiment: hCRTH2 receptor membranes radioligand (3H-PGD2) displacement assay. The settings on record: 3H-PGD2 radioligand displacement, HEK293-hCRTH2 membranes. The class given is binding. The essentials: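 Compound was first mixed with buffer, then 3H-PGD2 was added at 2.5 nM, and the reaction was started with hCRTH2 membranes from HEK293 cells at 20 μg/well. After 90 min at room temperature, mixtures were filtered and washed with ice-cold buffer, and retained radioactivity was counted.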
In general terms: Displacement assays read how much labelled ligand stays bound in the presence of the test substance.

Structures are written as SMILES.

Sequence of hCRTH2 receptor (Q9Y5Y4 whole entry): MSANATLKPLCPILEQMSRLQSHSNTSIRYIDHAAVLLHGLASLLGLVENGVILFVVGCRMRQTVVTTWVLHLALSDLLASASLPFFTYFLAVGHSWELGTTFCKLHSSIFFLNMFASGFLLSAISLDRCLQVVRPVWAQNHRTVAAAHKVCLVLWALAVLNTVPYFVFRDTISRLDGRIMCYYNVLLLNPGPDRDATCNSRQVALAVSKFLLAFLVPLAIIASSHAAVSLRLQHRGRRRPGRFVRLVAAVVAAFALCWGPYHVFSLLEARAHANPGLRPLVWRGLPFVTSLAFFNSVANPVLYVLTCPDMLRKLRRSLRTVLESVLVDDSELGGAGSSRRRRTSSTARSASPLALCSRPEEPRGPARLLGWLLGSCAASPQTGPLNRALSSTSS

What is called IC50 is the point on the concentration scale where inhibition reaches its midpoint. A higher IC50 goes with weaker potency in that assay. Molecule `COc1ccc(CC(=O)O)cc1-c1ccc(F)c2c1CN(C(=O)COc1ccccc1)CC2` [Example 43, {3-[5-Fluoro-2-(2-phenoxy-acetyl)-1,2,3,4-tetrahydro-isoquinolin-8-yl]-4-methoxy-phenyl}-acetic acid] displayed an IC50 of 30.2 nM.

For `CCOc1ccc(CC(=O)O)cc1-c1ccc(F)c2c1CN(C(=O)/C=C/c1ccccn1)CC2` [Example 336, {4-Ethoxy-3-[5-fluoro-2-((E)-3-pyridin-2-yl-acryloyl)-1,2,3,4-tetrahydro-isoquinolin-8-yl]-phenyl}-acetic acid], the IC50 was 3.8 nM.

Take `CCOc1cc(CC(=O)O)ccc1-c1ccc(F)c2c1CN(C(=O)CCc1ncccc1OC)CC2` [Example 314, (3-Ethoxy-4-{5-fluoro-2-[3-(3-methoxy-pyridin-2-yl)-propionyl]-1,2,3,4-tetrahydro-isoquinolin-8-yl}-phenyl)-acetic acid]: the IC50 is 46.1 nM.

The molecule `COc1ccc(CC(=O)O)cc1-c1ccc(F)c2c1CN(C(=O)OC(C)C)CC2` [Example 143, 8-(5-Carboxymethyl-2-methoxy-phenyl)-5-fluoro-3,4-dihydro-1H-isoquinoline-2-carboxylic acid isopropyl ester] registered an IC50 of 348 nM.

In the case of `COc1ccc(CC(=O)O)cc1-c1ccc(Cl)c2c1CN(C(=O)[C@@H]1C[C@H]1c1ccccc1F)CC2` [Example 70, (3-{5-Chloro-2-[(1R,2R)-2-(2-fluoro-phenyl)-cyclopropanecarbonyl]-1,2,3,4-tetrahydro-isoquinolin-8-yl}-4-methoxy-phenyl)-acetic acid], the IC50 came out at 1.16 nM.

The molecule `CCOc1ccc(CC(=O)O)cc1-c1ccc(F)c2c1CN(C(=O)/C=C/c1cnn(C)c1)CC2` [Example 341, (4-Ethoxy-3-{5-fluoro-2-[(E)-3-(1-methyl-1H-pyrazol-4-yl)-acryloyl]-1,2,3,4-tetrahydro-isoquinolin-8-yl}-phenyl)-acetic acid] yielded an IC50 of 5.8 nM.

Consider `COc1ccc2[nH]cc(CCC(=O)N3CCc4c(F)ccc(-c5cc(CC(=O)O)ccc5OC)c4C3)c2c1` [Example 63, (3-{5-Fluoro-2-[3-(5-methoxy-1H-indol-3-yl)-propionyl]-1,2,3,4-tetrahydro-isoquinolin-8-yl}-4-methoxy-phenyl)-acetic acid], for which the IC50 turned out to be 29.5 nM.

In the case of `COc1ccc(C2(C(=O)O)CC2)cc1-c1ccc(F)c2c1CN(C(=O)[C@@H]1C[C@H]1c1ccccc1)CC2` [Example 429, 1-{3-[5-Fluoro-2-((1R,2R)-2-phenyl-cyclopropanecarbonyl)-1,2,3,4-tetrahydro-isoquinolin-8-yl]-4-methoxy-phenyl}-cyclopropanecarboxylic acid], the IC50 turned out to be 50.7 nM.

In the case of `CCOc1cc(CC(=O)O)ccc1-c1ccc(F)c2c1CN(C(=O)CC1CC(C)(C)Oc3ccccc31)CC2` (racemic) [Example 323], the IC50 is 1.8 nM.

Molecule `COc1ccc(CC(=O)O)cc1-c1ccc(F)c2c1CN(C(=O)/C=C/c1cccnc1)CC2` [Example 89, {3-[5-Fluoro-2-((E)-3-pyridin-3-yl-acryloyl)-1,2,3,4-tetrahydro-isoquinolin-8-yl]-4-methoxy-phenyl}-acetic acid] returned an IC50 of 57.2 nM.

`COc1ccc(CC(=O)O)cc1-c1ccc(F)c2c1CN(C(=O)CCn1ncc3cc(F)ccc31)CC2` [Example 126, (3-{5-Fluoro-2-[3-(5-fluoro-indazol-1-yl)-propionyl]-1,2,3,4-tetrahydro-isoquinolin-8-yl}-4-methoxy-phenyl)-acetic acid]: the IC50 was 9.54 nM.

Regarding `COc1cc(OC(C)C(=O)O)ccc1-c1ccc(F)c2c1CN(C(=O)OCc1ccccc1)CC2` (stereo not drawn) [Example 202, 8-[4-(1-Carboxy-ethoxy)-2-methoxy-phenyl]-5-fluoro-3,4-dihydro-1H-isoquinoline-2-carboxylic acid benzyl ester], the IC50 came to 179 nM.

Turning to `O=C(O)Cc1ccc(OCC(F)(F)F)c(-c2ccc(F)c3c2CN(C(=O)CC2COc4ccccc42)CC3)c1` (racemic) [Example 307], the IC50 came out at 3.4 nM.

`O=C(O)COc1ccc(Cl)c(-c2ccc(C(F)(F)F)c3c2CN(C(=O)OCc2ccccc2)CC3)c1` [Example 180, 8-(5-Carboxymethoxy-2-chloro-phenyl)-5-trifluoromethyl-3,4-dihydro-1H-isoquinoline-2-carboxylic acid benzyl ester] gave an IC50 of 208 nM.

The molecule `O=C(O)CCCOc1ccc(F)cc1-c1cccc2c1CN(C(=O)OCc1ccccc1)CC2` [Example 174, 8-[2-(3-Carboxy-propoxy)-5-fluoro-phenyl]-3,4-dihydro-1H-isoquinoline-2-carboxylic acid benzyl ester] yielded an IC50 of 289 nM.

As for `COc1ccc(CC(=O)O)cc1-c1ccc(F)c2c1CN(C(=O)CC1CCOc3c(F)cccc31)CC2` (racemic) [Example 246], the IC50 amounted to 22.3 nM.

`CCOc1cc(CC(=O)O)ccc1-c1ccc(F)c2c1CN(C(=O)CCc1cccc(F)c1)CC2` [Example 316, (3-Ethoxy-4-{5-fluoro-2-[3-(3-fluoro-phenyl)-propionyl]-1,2,3,4-tetrahydro-isoquinolin-8-yl}-phenyl)-acetic acid] showed an IC50 of 2.1 nM.

`CC(C)c1cc(CC(=O)O)ccc1-c1ccc(F)c2c1CN(C(=O)OCc1ccccc1)CC2` [Example 216, 8-(4-Carboxymethyl-2-isopropyl-phenyl)-5-fluoro-3,4-dihydro-1H-isoquinoline-2-carboxylic acid benzyl ester]: the IC50 came to 19.4 nM.

`COc1c(CC(=O)O)cccc1-c1ccc(F)c2c1CN(C(=O)OCc1ccccc1)CC2` [Example 423, 8-(3-Carboxymethyl-2-methoxy-phenyl)-5-fluoro-3,4-dihydro-1H-isoquinoline-2-carboxylic acid benzyl ester] returned an IC50 of 180 nM.

`COc1ccc(CC(=O)O)cc1-c1ccc(F)c2c1CN(C(=O)[C@@H]1C[C@H]1c1ccc(Cl)cc1Cl)CC2` (racemic) [Example 98, (±)-(3-{2-[trans-2-(2,4-Dichloro-phenyl)-cyclopropanecarbonyl]-5-fluoro-1,2,3,4-tetrahydro-isoquinolin-8-yl}-4-methoxy-phenyl)-acetic acid] registered an IC50 of 10.1 nM.

In the case of `CC(C)Oc1cc(CC(=O)O)ccc1-c1ccc(F)c2c1CN(C(=O)CC(C)c1ccccn1)CC2` (racemic) [Example 346], the IC50 was determined as 3.7 nM.

With `COc1cc(CC(=O)O)cc(-c2ccc(F)c3c2CN(C(=O)OCc2ccccc2)CC3)c1` [Example 15, 8-(3-Carboxymethyl-5-methoxy-phenyl)-5-fluoro-3,4-dihydro-1H-isoquinoline-2-carboxylic acid benzyl ester], the IC50 was found to be 18.5 nM.

`O=C(O)COc1ccc(-c2ccc(F)c3c2CN(C(=O)OCc2ccccc2)CC3)cc1` [Example 172, 8-(4-Carboxymethoxy-phenyl)-5-fluoro-3,4-dihydro-1H-isoquinoline-2-carboxylic acid benzyl ester]: the IC50 was found to be 209 nM.

Consider `CCOc1ccc(CC(=O)O)cc1-c1ccc(F)c2c1CN(C(=O)OCC(C)CC)CC2` (racemic) [Example 380], for which the IC50 was determined as 4.2 nM.

With `COc1ccc(CC(=O)O)cc1-c1ccc(Cl)c2c1CN(C(=O)COCc1ccccc1Cl)CC2` [Example 73, (3-{5-Chloro-2-[2-(2-chloro-benzyloxy)-acetyl]-1,2,3,4-tetrahydro-isoquinolin-8-yl}-4-methoxy-phenyl)-acetic acid], the IC50 turned out to be 30.2 nM.

On to `COc1ccc(CC(=O)O)cc1-c1ccc(F)c2c1CN(C(=O)[C@@H]1C[C@H]1c1ccccc1Cl)CC2` (racemic) [Example 3, (±)-(3-{2-[trans-2-(2-Chloro-phenyl)-cyclopropanecarbonyl]-5-fluoro-1,2,3,4-tetrahydro-isoquinolin-8-yl}-4-methoxy-phenyl)-acetic acid], for which the IC50 was 2.11 nM.

Regarding `C[C@H](CC(=O)N1CCc2c(F)ccc(-c3ccc(CC(=O)O)cc3OCC(F)(F)F)c2C1)c1ccccc1` [Example 347, [4-[5-Fluoro-2-((R)-3-phenyl-butyryl)-1,2,3,4-tetrahydro-isoquinolin-8-yl]-3-(2,2,2-trifluoro-ethoxy)-phenyl]-acetic acid], the IC50 came out at 1.5 nM.

As for `CCOc1cc(CC(=O)O)ccc1-c1ccc(F)c2c1CN(C(=O)CCc1ccc(F)cc1)CC2` [Example 315, (3-Ethoxy-4-{5-fluoro-2-[3-(4-fluoro-phenyl)-propionyl]-1,2,3,4-tetrahydro-isoquinolin-8-yl}-phenyl)-acetic acid], the IC50 came out at 5.1 nM.

Turning to `COc1ccc(CC(=O)O)cc1-c1ccc(Cl)c2c1CN(C(=O)[C@@H]1C[C@H]1c1ccc(Cl)cc1)CC2` [Example 68, (3-{5-Chloro-2-[(1R,2R)-2-(4-chloro-phenyl)-cyclopropanecarbonyl]-1,2,3,4-tetrahydro-isoquinolin-8-yl}-4-methoxy-phenyl)-acetic acid], the IC50 turned out to be 3.75 nM.

In the case of `COc1ccc(-c2ccc(F)c3c2CN(C(=O)OCc2ccccc2)CC3)cc1CC(=O)O` [Example 13, 8-(3-Carboxymethyl-4-methoxy-phenyl)-5-fluoro-3,4-dihydro-1H-isoquinoline-2-carboxylic acid benzyl ester], the IC50 stood at 72.3 nM.

Take `COc1ccc(CC(=O)O)cc1-c1ccc(F)c2c1CN(C(=O)OCc1csc(C)n1)CC2` [Example 150, 8-(5-Carboxymethyl-2-methoxy-phenyl)-5-fluoro-3,4-dihydro-1H-isoquinoline-2-carboxylic acid 2-methyl-thiazol-4-ylmethyl ester]: the half-inhibitory concentration (IC50) worked out at 7.12 nM.

For the molecule `COc1ccc(CC(=O)O)cc1-c1ccc(F)c2c1CN(C(=O)OCc1cncnc1)CC2` [Example 152, 8-(5-Carboxymethyl-2-methoxy-phenyl)-5-fluoro-3,4-dihydro-1H-isoquinoline-2-carboxylic acid pyrimidin-5-ylmethyl ester], the IC50 turned out to be 34.1 nM.

Molecule `COc1ccc(CC(=O)O)cc1-c1ccc(F)c2c1CN(C(=O)OCc1cc(C)nn1C)CC2` [Example 149, 8-(5-Carboxymethyl-2-methoxy-phenyl)-5-fluoro-3,4-dihydro-1H-isoquinoline-2-carboxylic acid 2,5-dimethyl-2H-pyrazol-3-ylmethyl ester] returned an IC50 of 6.87 nM.

(Values after US9255090B2, “Heterocyclyl derivatives and their use as prostaglandin D2 receptor modulators” (Actelion Pharmaceuticals Ltd., priority 2012, dated 2016).)
